Test results: US20030220361A1, “Nicotinamide derivatives and a tiotropium salt in combination for the treatment of diseases” (priority 2002, published 2003)

Tested on: TNFα release from human peripheral blood mononuclear cells
Assay: Inhibition of LPS-stimulated TNFα release from human peripheral blood mononuclear cells (TNFα screen)
Format: cell-based
Settings: human PBMC, LPS stimulation, 18 hours incubation, TNFα in supernatant by ELISA
Description: Venous blood is collected from healthy volunteers and the mononuclear cells purified by centrifugation through Histopaque (Ficoll) cushions. TNFα production from these cells is stimulated by addition of lipopolysaccharide. After 18 hours incubation in the presence of LPS, the cell supernatant is removed and the concentration of TNFa in the supernatant determined by ELISA. Addition of PDE4 inhibitors reduces the. amount of TNFQ produced. An IC50 is determined which is equal to the concentration of compound that gives 50% inhibition TNFα production as compared to the LPS stimulated control wells.

Row | Structure (SMILES) | IC50
1 | O=C(N[C@H]1CC[C@H](NC(=O)c2cc(F)cnc2Oc2ccc(F)cc2)CC1)c1cc(O)ccc1O [Example 26] | 5.4 nM
2 | O=C(N[C@H]1CC[C@H](NC(=O)c2cc(F)cnc2Oc2ccc(F)cc2)CC1)c1cc(Cl)ccc1O [Example 20] | 113 nM
3 | O=C(N[C@H]1CC[C@@H](C(=O)NCc2ccc(O)cc2F)CC1)c1cccnc1Oc1ccc(F)cc1 [Example 173, Syn-N-[4-(2-Fluoro-4-hydroxy-benzyl-carbamoyl)-cyclohexyl]-2-(4-fluoro-phenoxy)-nicotinamide] | 2.1 nM
4 | O=C(N[C@H]1CC[C@H](NC(=O)c2cc(F)cnc2Oc2ccc3c(c2)OCO3)CC1)c1ccc(O)cc1 [Example 6] | 23.5 nM
5 | O=C(N[C@H]1C[C@H]2CC[C@@H](C1)N2C(=O)Cc1ccc(O)cc1)c1cc(F)cnc1Oc1ccc(F)cc1 [Example 92, endo-5-Fluoro-2-(4-fluoro-phenoxy)-N-{8-[2-(4-hydroxy-phenyl)-acetyl]-8-aza-bicyclo[3.2.1]oct-3-yl}-nicotinamide] | 185 nM
6 | O=C(O)c1ccccc1C(=O)N1[C@@H]2CC[C@H]1C[C@H](NC(=O)c1cc(F)cnc1Oc1ccc(F)cc1)C2 [Example 100, exo-2-(3-{[5-Fluoro-2-(4-fluoro-phenoxy)-pyridine-3-carbonyl]-amino}8-aza-bicyclo[3.2.1]octane-8-carbonyl}-benzoic Acid] | 56 nM
7 | Cc1ccc(C(=O)NC2CCC(NC(=O)c3cc(F)cnc3Oc3cc(F)cc(F)c3)CC2)c(O)c1 (stereo not drawn) [Example 217] | 0.3 nM
8 | COc1cc(O)c(C(=O)N[C@H]2CC[C@H](NC(=O)c3cc(F)cnc3Oc3ccc(F)cc3)CC2)c(OC)c1 [Example 30] | 2.6 nM
9 | O=C(N[C@H]1CC[C@@H](NC(=O)c2cc(F)cnc2Oc2ccc(F)c(F)c2)CC1)c1cc(Cl)c(Cl)cc1O [Example 193] | 9 nM
10 | O=C(N[C@H]1CC[C@@H](NC(=O)c2cc(F)cnc2Oc2ccc(F)c(F)c2)CC1)c1cc(CO)ccc1O [Example 183] | 0.07 nM
11 | O=C(N[C@H]1CC[C@H](NC(=O)c2c(O)cccc2F)CC1)c1cc(F)cnc1Oc1ccc(F)cc1 [Example 17] | 8.5 nM
12 | O=C(N[C@H]1CC[C@@H](NC(=O)c2cc(F)cnc2Oc2ccc(F)cc2)CC1)c1cccc(O)c1 [Example 48] | 1.66 nM
13 | O=C(N[C@H]1CC[C@@H](NC(=O)c2c(O)cccc2O)CC1)c1cc(F)cnc1Oc1ccc(F)c(F)c1 [Example 178] | 0.15 nM
14 | O=C(NC1CCN(C(=O)c2cccc(O)c2)CC1)c1cc(F)cnc1Oc1ccc(F)cc1 [Example 80] | 7.4 nM
15 | CC(=O)N(Cc1ccccc1O)C1CCC(NC(=O)c2cc(F)cnc2Oc2ccc(F)cc2)CC1 (stereo not drawn) [Example 44, Anti-N-{4-[Acetyl-(2-hydroxybenzyl)-amino]-cyclohexyl}-5-fluoro-2-(4-fluoro-phenoxy)-nicotinamide] | 91 nM
16 | COc1ccc(C(=O)N[C@H]2CC[C@H](NC(=O)c3cc(F)cnc3Oc3ccc(F)cc3)CC2)c(O)c1 [Example 23] | 7.8 nM
17 | O=C(NC1CCN(C(=O)CCc2ccccc2O)CC1)c1cc(F)cnc1Oc1ccc(F)cc1 [Example 91] | 37 nM
18 | O=C(Cc1ccccc1O)N[C@H]1CC[C@@H](NC(=O)c2cc(F)cnc2Oc2ccc(F)cc2)CC1 [Example 51] | 2.09 nM
19 | O=C(NC1CCN(C(=O)c2cc(F)ccc2O)CC1)c1cc(F)cnc1Oc1ccc(F)cc1 [Example 85] | 28 nM
20 | O=C(Cc1cccc(O)c1)N[C@H]1CC[C@H](NC(=O)c2cc(F)cnc2Oc2ccc(F)cc2)CC1 [Example 25] | 8.5 nM
21 | O=C(NC1CCC(NC(=O)c2c(O)cccc2F)CC1)c1cc(F)cnc1Oc1ccc(F)c(F)c1 (stereo not drawn) [Example 41, Anti-5-Fluoro-2-(3,4-difluoro-phenoxy)-N-[4-(2-fluoro-6-hydroxy-benzoylmino)-cyclohexyl]-Nicotinamide] | 4.9 nM
22 | O=C(O)c1ccnc(C(=O)N[C@H]2CC[C@@H](NC(=O)c3cc(F)cnc3Oc3ccc(F)cc3)CC2)c1 [Example 135] | 74 nM
23 | O=C(N[C@H]1CC[C@@H](C(=O)NCc2ccccc2O)CC1)c1cccnc1Oc1ccc(F)cc1 [Example 172, Syn-2-(4-Fluoro-phenoxy)-N-[4-(2-hydroxy-benzyl-carba-moyl)-cyclohexyl]-nicotinamide] | 4.3 nM
24 | COc1ccc(C(=O)N[C@H]2CC[C@@H](NC(=O)c3cc(F)cnc3Oc3ccc(F)cc3)CC2)cc1O [Example 54] | 2.8 nM

Continued by falling IC50, values first:

Row | IC50 | Structure (SMILES)
25 | 217 nM | O=C(CCc1cccc(O)c1)N[C@H]1CC[C@H](NC(=O)c2cc(F)cnc2Oc2ccc(F)cc2)CC1 [Example 28]
26 | 156 nM | O=C(N[C@H]1CC[C@H](NC(=O)c2ccc3ccccc3c2O)CC1)c1cc(F)cnc1Oc1ccc(F)cc1 [Example 22]
27 | 114 nM | O=C(NC1CCN(C(=O)Cc2ccc(O)cc2)CC1)c1cc(F)cnc1Oc1ccc(F)cc1 [Example 88]
28 | 49 nM | O=C(O)c1ccccc1C(=O)NC1CCC(NC(=O)c2cc(F)cnc2Oc2ccc(F)cc2)CC1 (stereo not drawn) [Example 76]
29 | 39.5 nM | O=C(N[C@H]1CC[C@H](NC(=O)c2ncccc2O)CC1)c1cc(F)cnc1Oc1ccc(F)cc1 [Example 27]
30 | 30 nM | CC(C)(CC(=O)N[C@H]1CC[C@@H](NC(=O)c2cc(F)cnc2Oc2ccc(F)cc2)CC1)C(=O)O [Example 129]
31 | 25.5 nM | Cc1ccc(C(=O)N2CCC(NC(=O)c3cc(F)cnc3Oc3ccc(F)cc3)CC2)c(O)c1 [Example 79, 5-Fluoro-2-(4-fluoro-phenoxy)-N-[1-(2-hydroxy-4-methyl-benzoyl)-piperidin-4-yl]-nicotinamide]
32 | 22 nM | Cc1ccc(O)c(C(=O)N[C@H]2CC[C@H](NC(=O)c3cc(F)cnc3Oc3ccc4c(c3)OCO4)CC2)c1 [Example 8]
33 | 21 nM | COC(=O)c1cccc(C(=O)N[C@H]2CC[C@@H](NC(=O)c3cc(F)cnc3Oc3ccc(F)cc3)CC2)n1 [Example 123]
34 | 16 nM | COc1cc(C(=O)O)ccc1C(=O)N[C@H]1CC[C@@H](NC(=O)c2cc(F)cnc2Oc2ccc(F)cc2)CC1 [Example 137]
35 | 13 nM | Cc1cccc(C(=O)NC2CCC(NC(=O)c3cc(F)cnc3Oc3ccc(Cl)c(F)c3)CC2)c1O (stereo not drawn) [Example 210]
36 | 7 nM | Cc1ccc(C(=O)N[C@H]2CC[C@@H](NC(=O)c3cc(F)cnc3Oc3ccc(F)cc3C)CC2)c(O)c1 [Example 203]
37 | 4.6 nM | COc1ccc(C(=O)N[C@H]2CC[C@@H](NC(=O)c3cc(F)cnc3Oc3ccc4c(c3)CCC4)CC2)c(O)c1 [Example 159]
38 | 3.6 nM | O=C(NC1CCC(NC(=O)C(O)C2CCCCC2)CC1)c1cc(F)cnc1Oc1ccc(F)cc1 (stereo not drawn) [Example 106]
39 | 3.5 nM | O=C(Cc1ccc(O)c(Cl)c1)N[C@H]1CC[C@@H](NC(=O)c2cc(F)cnc2Oc2ccc(F)cc2)CC1 [Example 58]
40 | 2 nM | CCc1cccc(Oc2ncc(F)cc2C(=O)N[C@H]2CC[C@@H](NC(=O)c3ccc(OC)cc3O)CC2)c1 [Example 157]
41 | 1.9 nM | O=C(Cc1ccc(O)c(F)c1)N[C@H]1CC[C@@H](NC(=O)c2cc(F)cnc2Oc2ccc(F)cc2)CC1 [Example 56]

Row | IC50 | Structure (SMILES)
42 | 0.7 nM | Cc1ccc(C(=O)N[C@H]2CC[C@@H](NC(=O)c3cc(F)cnc3Oc3cccc(C(F)(F)F)c3)CC2)c(O)c1 [Example 199]
43 | 0.55 nM | Cc1ccc(O)c(C(=O)N[C@H]2CC[C@@H](NC(=O)c3cc(F)cnc3Oc3cccc(OC4CCC4)c3)CC2)c1 [Example 205]
44 | 0.4 nM | Cc1ccc(C(=O)N[C@H]2CC[C@@H](NC(=O)c3cc(F)cnc3Oc3cccc(OC(F)(F)F)c3)CC2)c(O)c1 [Example 195, Syn-5-Fluoro-N-[4-(2-hydroxy-4-methyl-benzoylamino)-cyclohexyl]-2-(3-trifluoromethoxy-phenoxy)-nicotinamide]
45 | 0.3 nM | Cc1ccc(C(=O)N[C@H]2CC[C@@H](NC(=O)c3cc(F)cnc3Oc3cccc(Br)c3)CC2)c(O)c1 [Example 201]
46 | 0.3 nM | Cc1ccc(O)c(C(=O)N[C@H]2CC[C@@H](NC(=O)c3cc(F)cnc3Oc3cccc(C4CC4)c3)CC2)c1 [Example 204]
47 | 0.28 nM | Cc1ccc(C(=O)NC2CCC(NC(=O)c3cc(F)cnc3Oc3ccc(F)cc3)CC2)c(O)c1 (stereo not drawn) [Example 47, Syn-5-Fluoro-2-(4-fluoro-phenoxy)-N-[4-(2-hydroxy-4-methyl-benzoylamino)-cyclohexyl]-nicotinamide]
48 | 0.2 nM | COc1ccc(C(=O)N[C@H]2CC[C@@H](NC(=O)c3cc(F)cnc3Oc3cccc(F)c3)CC2)c(O)c1 [Example 152]
49 | 0.2 nM | Cc1ccc(O)c(C(=O)NC2CCC(NC(=O)c3cc(F)cnc3Oc3cccc(F)c3)CC2)c1 (stereo not drawn) [Example 213]
50 | 0.2 nM | O=C(N[C@H]1CC[C@@H](NC(=O)c2cc(F)cnc2Oc2ccc(F)c(F)c2)CC1)c1ccc(Cl)cc1O [Example 186]
51 | 0.14 nM | COc1ccc(C(=O)N[C@H]2CC[C@@H](NC(=O)c3cc(F)cnc3Oc3ccc(F)c(Cl)c3)CC2)c(O)c1 [Example 156]
52 | 0.09 nM | COc1ccc(C(=O)N[C@H]2CC[C@@H](NC(=O)c3cc(F)cnc3Oc3ccc(F)c(F)c3)CC2)c(O)c1 [Example 155]
53 | 0.09 nM | Cc1cccc(C(=O)NC2CCC(NC(=O)c3cc(F)cnc3Oc3ccc(F)c(F)c3)CC2)c1O (stereo not drawn) [Example 208]
54 | 0.06 nM | O=C(N[C@H]1CC[C@@H](NC(=O)c2cc(F)cnc2Oc2ccc(F)c(F)c2)CC1)c1ccccc1O [Example 190]
55 | 0.05 nM | Cc1ccc(C(=O)N[C@H]2CC[C@@H](NC(=O)c3cc(F)cnc3Oc3ccc(F)c(Cl)c3)CC2)c(O)c1 [Example 200]
56 | 0.014 nM | Cc1ccc(O)c(C(=O)N[C@H]2CC[C@@H](NC(=O)c3cc(F)cnc3Oc3ccc(F)c(F)c3)CC2)c1 [Example 174, Syn-2-(3.4-Difluoro-phenoxy)-5-fluoro-N-[4-(2-hydroxy-5-methyl-benzoylamino)-cyclohexyl]-nicotinamide]
57 | 0.006 nM | COc1ccc(O)c(C(=O)N[C@H]2CC[C@@H](NC(=O)c3cc(F)cnc3Oc3ccc(F)c(F)c3)CC2)c1 [Example 187]
